Experimental data taken from PubChem BioAssay AID248 (DTP/NCI, 2004).
Where “and” joins values, the source holds several entries; their conditions need not be identical. Identical values can stand only once. Inconclusive results and toxic doses are left out. Rule as the data show it: active = T/C of 150% or more; inactive = T/C below 125%.

Test system: L1210 leukemia ip in BDF1 mice, survival T/C
Experiment: NCI In Vivo Anticancer Drug Screen. Data for tumor model L1210 Leukemia (intraperitoneal) in B6D2F1 (BDF1) mice
Conditions: endpoint: mean survival time, higher = longer survival
Method in brief: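 Read-out is survival time, reported as the treated-group measurement over the vehicle-control measurement.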

[1] = dose: 100.0 mg/kg/injection, schedule: Q01DX001 (ip), vehicle: saline with Tween-80
[2] = dose: 100.0 mg/kg/injection, schedule: Q01DX009 (ip), vehicle: saline with Tween-80
[3] = dose: 200.0 mg/kg/injection, schedule: Q01DX001 (ip), vehicle: saline with Tween-80
[4] = dose: 200.0 mg/kg/injection, schedule: Q01DX009 (ip), vehicle: saline with Tween-80
[5] = dose: 400.0 mg/kg/injection, schedule: Q01DX001 (ip), vehicle: saline with Tween-80
[6] = dose: 400.0 mg/kg/injection, schedule: Q01DX009 (ip), vehicle: saline with Tween-80
[7] = dose: 100.0 mg/kg/injection, schedule: Q01DX009 (ip), vehicle: Klucel (hydroxypropylcellulose) (HPC)
[8] = dose: 200.0 mg/kg/injection, schedule: Q01DX009 (ip), vehicle: Klucel (hydroxypropylcellulose) (HPC)
[9] = dose: 400.0 mg/kg/injection, schedule: Q01DX009 (ip), vehicle: Klucel (hydroxypropylcellulose) (HPC)
[10] = dose: 100.0 mg/kg/injection, schedule: Q04DX003 (ip), vehicle: saline with Tween-80
[11] = dose: 200.0 mg/kg/injection, schedule: Q04DX003 (ip), vehicle: saline with Tween-80
[12] = dose: 400.0 mg/kg/injection, schedule: Q04DX003 (ip), vehicle: saline with Tween-80
[13] = dose: 100.0 mg/kg/injection, schedule: Q01DX001 (ip), vehicle: carboxymethylcellulose (CMC)
[14] = dose: 200.0 mg/kg/injection, schedule: Q01DX001 (ip), vehicle: carboxymethylcellulose (CMC)
[15] = dose: 400.0 mg/kg/injection, schedule: Q01DX001 (ip), vehicle: carboxymethylcellulose (CMC)
[16] = dose: 100.0 mg/kg/injection, schedule: Q01DX001 (ip), vehicle: saline
[17] = dose: 200.0 mg/kg/injection, schedule: Q01DX001 (ip), vehicle: saline

Measured: T/C

CCCCCCCCCCCC(=O)NC(=O)N1CCOCC1
inactive: [1] 101 % of control | [2] 97 % of control | [3] 101 % of control | [4] 98 % of control | [5] 94 % of control | [6] 93 % of control

CC1CN1C1=C(Br)C(=O)C(N2CC2C)=C(Br)C1=O (stereo not given)
inactive: dose: 1.56 mg/kg/injection, schedule: Q01DX009 (ip), vehicle: Klucel (hydroxypropylcellulose) (HPC) 95 % of control | dose: 1.56 mg/kg/injection, schedule: Q04DX003 (ip), vehicle: saline with Tween-80 98 % of control | dose: 3.12 mg/kg/injection, schedule: Q01DX009 (ip), vehicle: Klucel (hydroxypropylcellulose) (HPC) 98 % of control | dose: 3.12 mg/kg/injection, schedule: Q04DX003 (ip), vehicle: saline with Tween-80 104 % of control | dose: 6.25 mg/kg/injection, schedule: Q01DX009 (ip), vehicle: Klucel (hydroxypropylcellulose) (HPC) 95 % of control | dose: 6.25 mg/kg/injection, schedule: Q04DX003 (ip), vehicle: saline with Tween-80 98 % of control | dose: 12.5 mg/kg/injection, schedule: Q01DX009 (ip), vehicle: Klucel (hydroxypropylcellulose) (HPC) 90 % of control | dose: 12.5 mg/kg/injection, schedule: Q04DX003 (ip), vehicle: saline with Tween-80 95 % of control | dose: 25.0 mg/kg/injection, schedule: Q04DX003 (ip), vehicle: saline with Tween-80 98 % of control

Cc1ccc(NC(=S)N2CCOCC2)cc1C
inactive: [7] 94 % of control | [8] 100 % of control | [9] 94 % of control

O=c1cc(Nc2ccccc2)[nH]c(=O)[nH]1
inactive: dose: 100.0 mg/kg/injection, schedule: Q01DX001 (ip), vehicle: Klucel (hydroxypropylcellulose) (HPC) 92 % of control | dose: 200.0 mg/kg/injection, schedule: Q01DX001 (ip), vehicle: Klucel (hydroxypropylcellulose) (HPC) 93 % of control | dose: 400.0 mg/kg/injection, schedule: Q01DX001 (ip), vehicle: Klucel (hydroxypropylcellulose) (HPC) 95 % of control

Oc1c(Br)cc(Br)c2cccnc12
inactive: [7] 100 % of control | dose: 100.0 mg/kg/injection, schedule: Q04DX003 (ip), vehicle: saline 98 % of control | [8] 91 % of control | dose: 200.0 mg/kg/injection, schedule: Q04DX003 (ip), vehicle: saline 102 % of control | [9] 86 % of control | dose: 400.0 mg/kg/injection, schedule: Q04DX003 (ip), vehicle: saline 96 % of control

Cc1cc2cc3ccc(Cl)nn3c2n[n+]1[O-]
inactive: dose: 62.5 mg/kg/injection, schedule: Q04DX002 (ip), vehicle: Klucel (hydroxypropylcellulose) (HPC) 100 % of control | dose: 125.0 mg/kg/injection, schedule: Q04DX002 (ip), vehicle: Klucel (hydroxypropylcellulose) (HPC) 122 % of control

c1ccc(C(=C2CCC2)c2c3ccccc3cc3ccccc23)cc1
inactive: dose: 40.0 mg/kg/injection, schedule: Q01DX009 (ip), vehicle: Klucel (hydroxypropylcellulose) (HPC) 99 % of control | dose: 75.0 mg/kg/injection, schedule: Q01DX001 (ip), vehicle: Klucel (hydroxypropylcellulose) (HPC) 93 % of control | dose: 75.0 mg/kg/injection, schedule: Q01DX009 (ip), vehicle: Klucel (hydroxypropylcellulose) (HPC) 107 % of control | dose: 150.0 mg/kg/injection, schedule: Q01DX001 (ip), vehicle: Klucel (hydroxypropylcellulose) (HPC) 90 % of control | dose: 150.0 mg/kg/injection, schedule: Q01DX009 (ip), vehicle: Klucel (hydroxypropylcellulose) (HPC) 99 % of control

C=CCCCCCCCCCC(CCCCC)C(=O)O (stereo not given)
inactive: [1] 100 % of control | [3] 94 % of control | [5] 92 % of control

CC(C)=C(Cl)C(C)(C)C(=O)O
inactive: [10] 103 % of control | [11] 101 % of control | [12] 97 % of control

COc1ccc(C2CCC(=O)CC2(O)C(=O)O)cc1 (stereo not given)
inactive: [7] 91 % of control | dose: 100.0 mg/kg/injection, schedule: Q04DX003 (ip), vehicle: Klucel (hydroxypropylcellulose) (HPC) 98 % of control | [8] 88 % of control | dose: 200.0 mg/kg/injection, schedule: Q04DX003 (ip), vehicle: Klucel (hydroxypropylcellulose) (HPC) 102 % of control | [9] 98 % of control | dose: 400.0 mg/kg/injection, schedule: Q04DX003 (ip), vehicle: Klucel (hydroxypropylcellulose) (HPC) 100 % of control

CCOC(=O)CCC(C)Br (stereo not given)
inactive: dose: 50.0 mg/kg/injection, schedule: Q01DX009 (ip), vehicle: saline with Tween-80 97 % of control | [2] 101 % of control | [4] 108 % of control

CC(C)(c1cc(Br)sc1Br)c1cc(Br)sc1Br
inactive: dose: 50.0 mg/kg/injection, schedule: Q01DX009 (ip), vehicle: Klucel (hydroxypropylcellulose) (HPC) 95 % of control | [7] 98 % of control | dose: 100.0 mg/kg/injection, schedule: Q04DX003 (ip), vehicle: acetone 106 % of control | [8] 101 % of control | dose: 200.0 mg/kg/injection, schedule: Q04DX003 (ip), vehicle: acetone 117 % of control | dose: 400.0 mg/kg/injection, schedule: Q04DX003 (ip), vehicle: acetone 104 % of control

CCN1CC(=O)N(C)C1=S
inactive: dose: 50.0 mg/kg/injection, schedule: Q01DX001 (ip), vehicle: carboxymethylcellulose (CMC) 103 % of control | [13] 100 % of control | [14] 97 % of control | [15] 118 % of control

O=C(O)/C(=C\CCC/C=C(\CCO)C(=O)O)CCO
inactive: dose: 100.0 mg/kg/injection, schedule: Q01DX001 (ip), vehicle: DMSO 100 % of control | dose: 100.0 mg/kg/injection, schedule: Q01DX009 (ip), vehicle: DMSO 99 % of control | dose: 200.0 mg/kg/injection, schedule: Q01DX001 (ip), vehicle: DMSO 97 % of control | dose: 200.0 mg/kg/injection, schedule: Q01DX009 (ip), vehicle: DMSO 99 % of control | dose: 400.0 mg/kg/injection, schedule: Q01DX001 (ip), vehicle: DMSO 102 % of control | dose: 400.0 mg/kg/injection, schedule: Q01DX009 (ip), vehicle: DMSO 91 % of control

O=C(Nc1ccc([N+](=O)[O-])cc1)c1cc(N2CCOCC2)ccn1
inactive: [16] 89 % of control and 91 % of control | [17] 94 % of control and 95 % of control | dose: 400.0 mg/kg/injection, schedule: Q01DX001 (ip), vehicle: saline 95 % of control and 91 % of control

CC(=O)Oc1ccc(C2CC(=O)OC2=O)cc1 (stereo not given)
inactive: [2] 105 % of control | [10] 92 % of control | [4] 97 % of control | [11] 91 % of control | [6] 87 % of control | [12] 92 % of control

Cc1ccc(N=Nc2cc(C(C)C)c(O)cc2C)cc1
inactive: dose: 100.0 mg/kg/injection, schedule: Q01DX001 (ip), vehicle: other 97 % of control | dose: 200.0 mg/kg/injection, schedule: Q01DX001 (ip), vehicle: other 97 % of control | dose: 400.0 mg/kg/injection, schedule: Q01DX001 (ip), vehicle: other 95 % of control

CCOC(=O)c1ccc(Nc2nc3ccccc3o2)cc1
inactive: [13] 91 % of control | [14] 94 % of control | [15] 93 % of control

COc1cccc(N2C(=O)C3C(C2=O)C2(Cl)C(Cl)=C(Cl)C3(Cl)C2(Cl)Cl)c1 (stereo not given)
inactive: [7] 98 % of control | [8] 94 % of control | [9] 89 % of control

C[N+](C)(C)CC(O)CCl (stereo not given)
inactive: [16] 95 % of control | [17] 102 % of control

Cc1ccc(Cl)cc1NC(=O)C(C)Oc1ccccc1 (stereo not given)
inactive: dose: 100.0 mg/kg/injection, schedule: Q04DX002 (ip), vehicle: Klucel (hydroxypropylcellulose) (HPC) 89 % of control | dose: 200.0 mg/kg/injection, schedule: Q04DX002 (ip), vehicle: Klucel (hydroxypropylcellulose) (HPC) 89 % of control | dose: 400.0 mg/kg/injection, schedule: Q04DX002 (ip), vehicle: Klucel (hydroxypropylcellulose) (HPC) 92 % of control

O=C1NC(=O)C(c2ccccc2)C1=O (stereo not given)
inactive: dose: 50.0 mg/kg/injection, schedule: Q01DX Z (ip), vehicle: other 105 % of control | dose: 100.0 mg/kg/injection, schedule: Q01DX Z (ip), vehicle: other 96 % of control | dose: 200.0 mg/kg/injection, schedule: Q01DX Z (ip), vehicle: other 91 % of control | dose: 400.0 mg/kg/injection, schedule: Q01DX Z (ip), vehicle: other 89 % of control

CCCCCCCCCCCCCCCCC(O)CO (stereo not given)
inactive: [7] 96 % of control | [8] 102 % of control | [9] 96 % of control
